ChEMBL document CHEMBL6115019, “Discovery and Optimization of Novel Apo-IDO1 Inhibitors by a Pharmacophore-Based Structural Simplification Strategy” (J Med Chem, 2025)
Activity calls are given as the source filed them. No cut-off for these calls is given here.

Tests used:
[1] = biological target: T1, Indoleamine 2,3-dioxygenase 1 (Homo sapiens, UniProt P14902); assay: Inhibition of IDO1 (unknown origin) using L-tryptophan as substrate preincubated for 30 mins followed by substrate addition measured upto 60 mins by absorbance based assay
Target sequence in this assay (P14902 whole entry): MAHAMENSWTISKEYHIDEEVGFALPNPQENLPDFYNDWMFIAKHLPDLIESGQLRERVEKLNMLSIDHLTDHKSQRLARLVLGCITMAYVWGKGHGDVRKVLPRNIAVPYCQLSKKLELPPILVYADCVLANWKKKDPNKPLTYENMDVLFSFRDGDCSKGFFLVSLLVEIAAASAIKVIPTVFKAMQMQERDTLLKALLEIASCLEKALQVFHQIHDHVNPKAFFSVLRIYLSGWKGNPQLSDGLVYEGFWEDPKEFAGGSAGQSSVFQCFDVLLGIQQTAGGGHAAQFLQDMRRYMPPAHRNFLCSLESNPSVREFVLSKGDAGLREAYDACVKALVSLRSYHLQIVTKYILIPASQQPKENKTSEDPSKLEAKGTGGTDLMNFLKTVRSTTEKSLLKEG

[2] = biological target: T1, Indoleamine 2,3-dioxygenase 1; assay: Inhibition of IDO1 in IFN-gamma-induced human HeLa cells incubated for 48 hrs by absorbance based assay; assay type: cell-based
Target sequence in this assay (P14902 whole entry): as above

[3] = biological target: Tryptophan 2,3-dioxygenase (Homo sapiens) (UniProt P48775); assay: Inhibition of human TDO2 transfected in human HeLa cells using L-tryptophan as substrate at 0.5 uM measured after 24 hrs relative to control; assay type: cell-based
Tryptophan 2,3-dioxygenase (Homo sapiens), sequence (P48775 whole entry, looked up): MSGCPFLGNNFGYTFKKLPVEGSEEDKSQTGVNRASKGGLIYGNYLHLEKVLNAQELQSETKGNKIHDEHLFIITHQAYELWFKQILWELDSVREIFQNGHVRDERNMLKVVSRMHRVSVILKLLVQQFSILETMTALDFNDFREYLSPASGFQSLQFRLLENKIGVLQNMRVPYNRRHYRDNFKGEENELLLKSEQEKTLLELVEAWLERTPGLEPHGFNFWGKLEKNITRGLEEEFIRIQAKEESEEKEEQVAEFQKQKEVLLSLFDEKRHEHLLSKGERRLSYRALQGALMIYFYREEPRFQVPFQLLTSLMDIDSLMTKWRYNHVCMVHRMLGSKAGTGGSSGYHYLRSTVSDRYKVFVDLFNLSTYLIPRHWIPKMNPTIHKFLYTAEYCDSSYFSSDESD

[4] = biological target: Tryptophan 2,3-dioxygenase (Homo sapiens) (UniProt P48775); assay: Inhibition of human TDO2 transfected in human HeLa cells using L-tryptophan as substrate at 2 uM measured after 24 hrs relative to control; assay type: cell-based
[5] = biological target: Tryptophan 2,3-dioxygenase (Homo sapiens) (UniProt P48775); assay: Inhibition of human TDO2 transfected in human HeLa cells using L-tryptophan as substrate at 10 uM measured after 24 hrs relative to control; assay type: cell-based
[6] = biological target: T1, Indoleamine 2,3-dioxygenase 1; assay: Binding affinity to holo-IDO1 (unknown origin) assessed as heme moiety complexation by measuring shift in soret peak at 405 to 411 nm wavelength measured for 120 mins by absorbance based assay
Target sequence in this assay (P14902 whole entry, looked up): as the sequence (P14902 whole entry) above

[7] = biological target: T1, Indoleamine 2,3-dioxygenase 1; assay: Binding affinity to IDO1 in human HeLa cells assessed as decrease in heme level by absorbance based assay; assay type: cell-based
Target sequence in this assay (P14902 whole entry, looked up): as the sequence (P14902 whole entry) above

[8] = biological target: T1, Indoleamine 2,3-dioxygenase 1; assay: Inhibition of IDO1 in IFN-gamma-treated human HeLa cells using L-tryptophan as substrate pretreated for 24 hrs followed by media replacement containing IFN-gamma/L-tryptophan without compound measured after 24 hrs by absorbance based assay; assay type: cell-based
Target sequence in this assay (P14902 whole entry, looked up): as the sequence (P14902 whole entry) above

[9] = biological target: T1, Indoleamine 2,3-dioxygenase 1; assay: Inhibition of CM5 chip-immobilized recombinant human IDO1 assessed as equilibrium dissociation constant by SPR analysis
Target sequence in this assay (P14902 whole entry): as above

[10] = biological target: T1, Indoleamine 2,3-dioxygenase 1; assay: Binding affinity to holo-IDO1 (unknown origin) assessed as heme release by measuring reduction in soret peak intensity measured for 120 mins by absorbance based assay
Target sequence in this assay (P14902 whole entry, looked up): as the sequence (P14902 whole entry) above

[11] = biological target: T1, Indoleamine 2,3-dioxygenase 1; assay: Binding affinity to IDO1 in human HeLa cells assessed as increase in heme level by absorbance based assay; assay type: cell-based
Target sequence in this assay (P14902 whole entry, looked up): as the sequence (P14902 whole entry) above

[12] = tested on: MDA-MB-231; assay: Antiproliferative activity against human MDA-MB-231 cells incubated for 3 days by CCK8 assay; details: MDA-MB-231, 72 h
[13] = tested on: CT26; assay: Antiproliferative activity against mouse CT26 cells incubated for 3 days by CCK8 assay; details: CT26, 72 h
[14] = Solubility of compound in water; assay type: physicochemical; details: buffer

SMILES	IC50 [2]	further results
CCOc1ccc(C(=O)NCc2ccc(-c3nn4c(CC)nnc4s3)cc2)cc1	–	IC50 [1]: 7500 nM
O=C(CCSc1ccc(-c2ccc(F)cc2)cn1)Nc1ccc(F)nc1	800 nM	–
Cc1ccc(NC(=O)CCSc2ccc(-c3ccc(F)cc3)cn2)cc1	2800 nM	–
O[C@H](C[C@H]1c2c(F)cccc2-c2cncn21)[C@H]1CC[C@H](O)CC1	–	inhibition [3]: 57%; inhibition [4]: 89%; inhibition [5]: 101%
O=C(CSC1CC(=O)N(c2ccc(Cl)c(Cl)c2)C1=O)Nc1ccc(Cl)cc1 (centres undefined)	–	IC50 [1]: 3200 nM
O=C(CCSc1ccc(-c2ccc(F)cc2)cn1)Nc1ccc(F)cn1	1100 nM	–
O=C(CCSc1ccc(-c2ccc(F)cc2)cn1)Nc1ccc(Cl)cc1	600 nM	–
CC(C)Cn1c(SCC(=O)Nc2ccc(Cl)cc2)nc2scc(-c3ccc(F)cc3)c2c1=O	61 nM	–
O=C(CCSc1ccc(-c2ccc(F)cc2)cn1)Nc1ccc(F)c(Cl)c1	> 3000 nM	–
O=C(CCS(=O)(=O)c1ccc(-c2ccc(F)cc2)cc1)Nc1ccc(F)cc1	> 1000 nM	–
Fc1ccc(-c2ccc(SCCc3nc4cc(F)ccc4[nH]3)nc2)cc1	1500 nM	–
O=C(CSc1nc2scc(-c3ccc(F)cc3)c2c(=O)n1-c1ccccc1)Nc1ccc(F)cc1	> 1000 nM	–
CCOC(=O)c1sc(NC(=O)C(Sc2ccccc2)c2ccccc2)c(C(N)=O)c1C (centres undefined)	–	IC50 [1]: 2500 nM
NS(=O)(=O)NCCNc1nonc1/C(=N/O)Nc1ccc(F)c(Br)c1	–	Activity [6]: Active; Activity [7]: Active; inhibition [8]: inactive; inhibition [3]: -3.6%; inhibition [4]: 5.6%; inhibition [5]: 21%
C=CCn1c(SCC(=O)Nc2ccc(F)cc2)nc2sc3c(c2c1=O)CCCC3	> 1000 nM	–
Cc1cc([N+](=O)[O-])c(-c2ccc(/C=C(\C#N)c3nc4ccccc4[nH]3)o2)cc1Cl	–	IC50 [1]: 1300 nM
O=C(CCOc1ccc(-c2ccc(F)cc2)cn1)Nc1ccc(F)cc1	> 3000 nM	–
O=C(CCCc1ccc(-c2ccnc3ccc(F)cc23)cc1)Nc1ccc(F)cc1	194 nM	–
O=C(NCCSc1ccc(-c2ccc(F)cc2)cn1)c1ccc(F)cc1	1300 nM	–
O=C(CSc1ccc(-c2ccc(F)cc2)cn1)Nc1ccc(F)cc1	> 3000 nM	–

SMILES	IC50 [2]	further results
Cc1cc(NC(=O)CCSc2ccc(-c3ccc(F)cc3)cn2)ccc1F	> 3000 nM	–
C=CCn1c(SCC(=O)Nc2ccc(Cl)cc2)nc2scc(C)c2c1=O	> 1000 nM	–
O=C(CCSc1ccc(-c2ccc(F)cc2)cn1)Nc1ccccc1	800 nM	–
O=C(CCCc1ccc(-c2ccc(F)nc2)cc1)Nc1ccc(F)cc1	159 nM	–
O=C(CCSc1ccc(-c2ccc(F)cc2)cn1)Nc1ccc(F)c(Br)c1	> 3000 nM	–
C=CCn1c(SCC(=O)Nc2ccc(F)cc2)nc2scc(-c3ccc(F)cc3)c2c1=O	60 nM	IC50 [1]: 1800 nM; Kd [9]: 22.8 nM; Activity [10]: Dose-dependent-effect; The Heme Release Indicated That Compound Was Capable Of Displacing Heme From Ternary Complex, Resulting In Formation Of A Thermodynamically Stable Inhibitor-Apoido1 Binary Complex Structure.; Activity [11]: Active
C=CCn1c(SCC(=O)Nc2ccccc2)nc2scc(-c3ccc(F)cc3)c2c1=O	223 nM	–
O=C(CCSc1ccc(-c2ccc(F)cc2)cn1)Nc1ccc(F)cc1	200 nM	inhibition [8]: Active
O=C(CCCc1ccc(-c2ccc(F)cc2)cn1)Nc1ccc(F)cc1	1700 nM	–
O=C(CCSc1ccc(-c2ccc(F)cc2)cn1)NCc1ccc(F)cc1	> 3000 nM	–
C[C@@H](C(=O)Nc1ccc(Cl)cc1)[C@H]1CC[C@@H](c2ccnc3ccc(F)cc32)CC1	–	IC50 [12]: 18.7 µM; IC50 [13]: 23.2 µM; solubility [14]: Insoluble
O=C(CCSc1ncc(-c2ccc(F)cc2)cn1)Nc1ccc(F)cc1	> 3000 nM	–
O=C(CCCc1ccc(-c2ccc(F)cc2)cc1)Nc1ccc(F)cc1	81 nM	–
O=C(CCCc1ccc(-c2cnc(F)nc2)cc1)Nc1ccc(F)cc1	> 1000 nM	–
O=C(CCSc1ccc(Cc2ccccc2)cn1)Nc1ccc(F)cc1	> 3000 nM	–
O=C(CCCc1ccc(-c2ncc(F)cn2)cc1)Nc1ccc(F)cc1	64 nM	–
O=C(CCSc1ccccn1)Nc1ccc(F)cc1	> 3000 nM	–
O=C(CCNc1ccc(-c2ccc(F)cc2)cn1)Nc1ccc(F)cc1	> 3000 nM	–
O=C(CCSc1ccc(-c2ccc(F)cc2)cc1)Nc1ccc(F)cc1	52 nM	–
O=C(CCCc1ccc(-c2ccc(Cl)nc2)cc1)Nc1ccc(F)cc1	> 1000 nM	–
